Measured values from ChEMBL document CHEMBL1201862, “PubChem BioAssay data set” (2004).
One block for each molecule: values may come before it. Active and inactive are the calls of the source. Rule as the data show it, for most assays here: actives have a measured IC50 and inactives only a lower limit.

Assays:
[1] = test system: HEK293; test: Fluorescence-based counterscreen for potentiators or agonists of NPY-Y2: cell-based high-throughput dose response assay to identify inhibitors of cyclic nucleotide gated ion channel (CNGC) activity. In this assay, the parental HEK293 cell line transfected with a cyclic-nucleotide gated ion channel (CNGC)-based cAMP sensor is used to measure inhibition of isoproterenol-induced CNGC activity by test compound.; type: functional; conditions: Homo sapiens;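 also: stimulus is 1 µM isoproterenol at EC100 plus PDE inhibitor Ro 20-1724 at 25 µM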
[2] = target: T1, Neuropeptide Y receptor type 2 (Homo sapiens, UniProt P49146); test: Fluorescence-based cell-based high-throughput dose response assay for agonists of NPY-Y2. [Related pubchem assays: 1703 (Screening assay (CNGC inhibitors).), 1359 (Screening assay (NPY-Y2 potentiators or agonists).), 1304 (Screening assay (NPY-Y1 potentiators or agonists).), 1710 (Screening assay (NPY-Y2 agonists).), 1791 (Summary AID.)]; type: functional
T1 sequence (P49146 whole entry): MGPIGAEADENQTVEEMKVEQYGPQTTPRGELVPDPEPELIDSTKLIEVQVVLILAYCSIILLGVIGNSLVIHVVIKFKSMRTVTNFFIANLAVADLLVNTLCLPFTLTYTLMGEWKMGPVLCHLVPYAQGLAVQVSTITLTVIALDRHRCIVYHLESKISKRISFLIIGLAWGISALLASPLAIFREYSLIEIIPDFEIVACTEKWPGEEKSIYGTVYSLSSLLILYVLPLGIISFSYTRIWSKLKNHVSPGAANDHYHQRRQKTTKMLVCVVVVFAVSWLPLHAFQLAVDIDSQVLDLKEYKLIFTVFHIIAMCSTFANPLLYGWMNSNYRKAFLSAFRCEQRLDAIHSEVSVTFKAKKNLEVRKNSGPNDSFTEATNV

[3] = target: T2, Neuropeptide Y receptor type 1 (Homo sapiens, UniProt P25929); test: Fluorescence-based counterscreen for agonists of NPY-Y2: cell-based high-throughput dose response assay for agonists of NPY-Y1.; type: functional
T2 sequence (P25929 whole entry): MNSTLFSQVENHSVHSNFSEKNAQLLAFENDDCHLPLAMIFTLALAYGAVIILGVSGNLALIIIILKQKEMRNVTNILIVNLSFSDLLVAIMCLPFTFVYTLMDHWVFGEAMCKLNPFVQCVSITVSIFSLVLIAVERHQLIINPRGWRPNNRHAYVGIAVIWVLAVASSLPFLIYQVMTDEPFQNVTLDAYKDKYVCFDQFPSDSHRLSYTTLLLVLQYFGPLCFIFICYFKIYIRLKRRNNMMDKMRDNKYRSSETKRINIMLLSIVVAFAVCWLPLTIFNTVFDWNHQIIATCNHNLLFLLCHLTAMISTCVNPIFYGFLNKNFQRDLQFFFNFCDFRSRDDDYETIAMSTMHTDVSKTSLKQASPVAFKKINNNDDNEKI

[4] = target: Voltage-gated N-type calcium channel alpha-1B subunit/Amyloid beta A4 precursor protein-binding family A member 1 (Homo sapiens, UniProt Q00975+Q02410); test: disruptors of Mint-PDZ/N-type channel peptide interaction – biochemical, HTRF, set 2, SAR follow-up (AID 434980); type: functional
[5] = target: Mothers against decapentaplegic homolog 3 (Homo sapiens, UniProt P84022); test: blockers of Smad3 complex formation in lysate – cell lysate, secondary confirmation, chemiluminescent ELISA, HEK293 lysate, dose response (AID 1058); type: functional
[6] = target: T3, Eukaryotic translation initiation factor 2-alpha kinase 3 (Homo sapiens, UniProt Q9NZJ5); test: Counterscreen assay for PERK inhibitors: Dose response cell-based high throughput screening assay to measure inhibition of PERK at 6 hours. [Related pubchem assays: 1522, 1416 ]; type: functional
[7] = target: T3, Eukaryotic translation initiation factor 2-alpha kinase 3; test: Dose response cell-based high-throughput screening assay to measure PERK inhibition. [Related pubchem assays: 1416 ]; type: functional
[8] = target: T4, Dual specificity protein phosphatase 6 (Rattus norvegicus, UniProt Q64346)
T4 sequence (Q64346 whole entry): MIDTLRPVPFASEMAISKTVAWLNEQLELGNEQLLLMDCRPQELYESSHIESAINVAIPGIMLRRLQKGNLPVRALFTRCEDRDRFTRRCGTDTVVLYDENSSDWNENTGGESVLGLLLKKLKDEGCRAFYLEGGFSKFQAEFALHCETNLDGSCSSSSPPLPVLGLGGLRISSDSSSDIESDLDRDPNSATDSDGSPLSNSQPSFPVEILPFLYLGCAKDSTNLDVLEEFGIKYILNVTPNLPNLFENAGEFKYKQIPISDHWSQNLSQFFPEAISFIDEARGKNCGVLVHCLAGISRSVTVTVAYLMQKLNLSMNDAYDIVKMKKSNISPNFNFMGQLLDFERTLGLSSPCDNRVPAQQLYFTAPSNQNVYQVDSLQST

[9] = target: T4, Dual specificity protein phosphatase 6; type: functional
[10] = target: Heat shock 70 kDa protein 1A (Homo sapiens, UniProt P0DMV8); test: inhibition of Hsp70 binding activity – biochemical, fluorescence polarization, SAR follow-up (AID 1072)
[11] = target: Heat shock cognate 71 kDa protein (Homo sapiens, UniProt P11142); test: In Vitro Hsc70 Dose Response Fluorescence Polarization Assay. [Related pubchem assays: 1072 ]
[12] = target: Glyceraldehyde-3-phosphate dehydrogenase (Homo sapiens, UniProt P04406)
[13] = target: T5, Tyrosine-protein phosphatase non-receptor type 7 (Homo sapiens, UniProt P35236); type: functional
T5 sequence (P35236 whole entry): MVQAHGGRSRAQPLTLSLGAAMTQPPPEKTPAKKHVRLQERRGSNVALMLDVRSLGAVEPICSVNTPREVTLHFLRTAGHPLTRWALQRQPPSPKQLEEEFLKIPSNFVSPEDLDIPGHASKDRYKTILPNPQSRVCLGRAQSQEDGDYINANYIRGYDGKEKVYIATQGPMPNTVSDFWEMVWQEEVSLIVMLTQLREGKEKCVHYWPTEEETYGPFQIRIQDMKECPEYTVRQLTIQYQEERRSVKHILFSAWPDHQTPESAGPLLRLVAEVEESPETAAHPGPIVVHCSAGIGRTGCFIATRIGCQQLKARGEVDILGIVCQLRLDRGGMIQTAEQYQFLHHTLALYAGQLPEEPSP

T3 sequence (Q9NZJ5 whole entry): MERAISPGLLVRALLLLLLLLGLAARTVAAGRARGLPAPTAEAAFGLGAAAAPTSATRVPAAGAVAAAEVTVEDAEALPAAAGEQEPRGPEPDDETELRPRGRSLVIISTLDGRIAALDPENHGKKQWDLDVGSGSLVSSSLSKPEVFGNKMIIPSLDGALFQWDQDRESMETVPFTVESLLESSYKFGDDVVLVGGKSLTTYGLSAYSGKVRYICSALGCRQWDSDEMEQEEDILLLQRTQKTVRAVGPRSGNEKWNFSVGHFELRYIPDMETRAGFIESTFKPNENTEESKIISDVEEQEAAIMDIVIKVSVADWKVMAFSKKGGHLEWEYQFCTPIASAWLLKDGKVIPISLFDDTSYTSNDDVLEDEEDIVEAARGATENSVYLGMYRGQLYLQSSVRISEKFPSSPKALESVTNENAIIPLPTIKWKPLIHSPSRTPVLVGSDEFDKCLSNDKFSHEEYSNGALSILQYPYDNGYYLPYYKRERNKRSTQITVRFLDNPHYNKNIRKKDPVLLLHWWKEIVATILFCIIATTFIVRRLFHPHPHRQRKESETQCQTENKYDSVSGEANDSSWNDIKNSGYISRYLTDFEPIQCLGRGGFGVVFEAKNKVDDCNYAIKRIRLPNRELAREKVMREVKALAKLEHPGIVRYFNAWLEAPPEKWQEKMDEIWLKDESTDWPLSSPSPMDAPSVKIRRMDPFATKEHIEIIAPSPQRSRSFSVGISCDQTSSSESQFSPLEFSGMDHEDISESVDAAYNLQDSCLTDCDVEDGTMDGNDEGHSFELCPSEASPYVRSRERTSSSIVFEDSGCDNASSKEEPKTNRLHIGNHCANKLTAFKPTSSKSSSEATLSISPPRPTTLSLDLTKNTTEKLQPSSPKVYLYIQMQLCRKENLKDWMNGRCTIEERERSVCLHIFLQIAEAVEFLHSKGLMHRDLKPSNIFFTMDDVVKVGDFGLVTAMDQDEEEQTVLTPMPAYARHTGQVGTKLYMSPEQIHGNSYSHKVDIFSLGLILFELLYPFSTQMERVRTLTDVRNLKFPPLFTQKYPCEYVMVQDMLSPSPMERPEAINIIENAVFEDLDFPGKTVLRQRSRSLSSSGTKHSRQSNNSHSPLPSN
Chain of Heat shock cognate 71 kDa protein (P11142 whole entry): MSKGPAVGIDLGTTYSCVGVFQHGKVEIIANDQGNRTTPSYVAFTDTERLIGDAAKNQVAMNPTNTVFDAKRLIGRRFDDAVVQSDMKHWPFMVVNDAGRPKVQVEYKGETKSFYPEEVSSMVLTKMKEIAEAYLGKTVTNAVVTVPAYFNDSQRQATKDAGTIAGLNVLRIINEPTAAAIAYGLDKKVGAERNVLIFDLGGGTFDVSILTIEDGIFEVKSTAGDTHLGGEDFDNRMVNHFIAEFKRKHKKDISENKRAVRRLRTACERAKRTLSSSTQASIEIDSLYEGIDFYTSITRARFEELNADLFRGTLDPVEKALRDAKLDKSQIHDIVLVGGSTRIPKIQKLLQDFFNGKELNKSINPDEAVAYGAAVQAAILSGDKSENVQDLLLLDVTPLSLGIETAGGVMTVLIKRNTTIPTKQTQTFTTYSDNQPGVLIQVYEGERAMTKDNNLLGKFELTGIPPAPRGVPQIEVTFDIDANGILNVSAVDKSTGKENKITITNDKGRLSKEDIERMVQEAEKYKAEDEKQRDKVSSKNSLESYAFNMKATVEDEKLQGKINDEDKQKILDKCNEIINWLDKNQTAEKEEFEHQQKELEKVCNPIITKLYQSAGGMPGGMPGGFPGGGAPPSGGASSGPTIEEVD
Chain of Voltage-gated N-type calcium channel alpha-1B subunit/Amyloid beta A4 precursor protein-binding family A member 1 (Q00975 whole entry): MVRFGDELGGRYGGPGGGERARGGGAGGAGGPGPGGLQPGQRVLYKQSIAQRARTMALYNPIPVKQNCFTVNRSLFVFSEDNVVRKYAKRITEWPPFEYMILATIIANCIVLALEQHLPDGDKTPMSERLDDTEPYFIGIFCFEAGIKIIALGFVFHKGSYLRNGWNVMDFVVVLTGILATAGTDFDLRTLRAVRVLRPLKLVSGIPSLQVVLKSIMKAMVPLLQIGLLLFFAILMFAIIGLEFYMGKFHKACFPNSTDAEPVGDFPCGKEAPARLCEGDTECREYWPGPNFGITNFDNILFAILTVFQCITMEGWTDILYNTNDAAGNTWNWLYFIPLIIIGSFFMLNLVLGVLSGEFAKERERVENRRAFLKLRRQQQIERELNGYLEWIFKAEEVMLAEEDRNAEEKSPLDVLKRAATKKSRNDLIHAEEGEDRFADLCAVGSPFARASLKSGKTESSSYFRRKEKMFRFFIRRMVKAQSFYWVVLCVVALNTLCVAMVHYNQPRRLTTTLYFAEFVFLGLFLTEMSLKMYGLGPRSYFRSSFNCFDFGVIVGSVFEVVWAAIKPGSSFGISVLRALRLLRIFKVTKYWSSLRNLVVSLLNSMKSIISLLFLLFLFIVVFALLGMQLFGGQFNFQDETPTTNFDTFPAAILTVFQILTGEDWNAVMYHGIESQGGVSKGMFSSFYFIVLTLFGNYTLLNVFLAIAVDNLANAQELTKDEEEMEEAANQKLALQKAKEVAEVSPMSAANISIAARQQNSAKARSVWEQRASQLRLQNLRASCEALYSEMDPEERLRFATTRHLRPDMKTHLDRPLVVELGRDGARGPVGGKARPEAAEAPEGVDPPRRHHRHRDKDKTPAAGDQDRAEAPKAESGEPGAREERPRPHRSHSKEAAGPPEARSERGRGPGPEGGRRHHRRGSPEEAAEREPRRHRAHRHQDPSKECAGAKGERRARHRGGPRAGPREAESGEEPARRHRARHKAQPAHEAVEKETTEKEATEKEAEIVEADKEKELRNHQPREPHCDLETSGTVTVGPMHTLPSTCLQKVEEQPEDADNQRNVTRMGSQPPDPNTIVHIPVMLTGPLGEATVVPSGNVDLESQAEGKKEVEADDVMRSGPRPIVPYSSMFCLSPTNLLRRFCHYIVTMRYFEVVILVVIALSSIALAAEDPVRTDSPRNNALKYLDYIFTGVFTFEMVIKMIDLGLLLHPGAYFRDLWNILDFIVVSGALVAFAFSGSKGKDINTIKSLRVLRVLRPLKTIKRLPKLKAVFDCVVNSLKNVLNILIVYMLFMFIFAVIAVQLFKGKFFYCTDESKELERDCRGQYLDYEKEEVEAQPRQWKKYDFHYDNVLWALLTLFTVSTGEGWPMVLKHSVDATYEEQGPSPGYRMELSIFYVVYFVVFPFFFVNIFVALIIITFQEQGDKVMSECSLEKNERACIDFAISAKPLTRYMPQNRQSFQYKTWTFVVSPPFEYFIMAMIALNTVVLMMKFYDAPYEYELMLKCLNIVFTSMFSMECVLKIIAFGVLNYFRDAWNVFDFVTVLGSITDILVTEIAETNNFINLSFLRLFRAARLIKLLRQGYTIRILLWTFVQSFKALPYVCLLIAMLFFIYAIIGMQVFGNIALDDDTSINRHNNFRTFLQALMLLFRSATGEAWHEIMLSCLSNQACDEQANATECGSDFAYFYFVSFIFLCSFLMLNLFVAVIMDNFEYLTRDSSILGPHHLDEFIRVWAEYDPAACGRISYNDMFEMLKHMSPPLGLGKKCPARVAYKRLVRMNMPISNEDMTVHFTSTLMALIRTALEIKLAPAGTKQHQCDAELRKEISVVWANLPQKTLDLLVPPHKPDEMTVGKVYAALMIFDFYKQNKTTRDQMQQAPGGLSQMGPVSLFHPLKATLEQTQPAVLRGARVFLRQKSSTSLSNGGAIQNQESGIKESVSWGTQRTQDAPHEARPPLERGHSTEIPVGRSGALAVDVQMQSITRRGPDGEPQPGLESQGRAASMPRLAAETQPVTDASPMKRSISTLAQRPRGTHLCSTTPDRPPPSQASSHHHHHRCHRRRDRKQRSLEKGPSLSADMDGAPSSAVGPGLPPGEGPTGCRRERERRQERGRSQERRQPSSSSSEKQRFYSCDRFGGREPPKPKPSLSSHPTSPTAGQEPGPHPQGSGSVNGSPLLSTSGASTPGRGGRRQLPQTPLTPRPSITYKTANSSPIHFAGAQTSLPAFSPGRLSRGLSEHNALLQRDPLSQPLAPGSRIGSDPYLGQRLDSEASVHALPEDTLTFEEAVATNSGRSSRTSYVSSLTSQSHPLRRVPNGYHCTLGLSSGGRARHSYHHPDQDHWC
Chain of Voltage-gated N-type calcium channel alpha-1B subunit/Amyloid beta A4 precursor protein-binding family A member 1 (Q02410 whole entry): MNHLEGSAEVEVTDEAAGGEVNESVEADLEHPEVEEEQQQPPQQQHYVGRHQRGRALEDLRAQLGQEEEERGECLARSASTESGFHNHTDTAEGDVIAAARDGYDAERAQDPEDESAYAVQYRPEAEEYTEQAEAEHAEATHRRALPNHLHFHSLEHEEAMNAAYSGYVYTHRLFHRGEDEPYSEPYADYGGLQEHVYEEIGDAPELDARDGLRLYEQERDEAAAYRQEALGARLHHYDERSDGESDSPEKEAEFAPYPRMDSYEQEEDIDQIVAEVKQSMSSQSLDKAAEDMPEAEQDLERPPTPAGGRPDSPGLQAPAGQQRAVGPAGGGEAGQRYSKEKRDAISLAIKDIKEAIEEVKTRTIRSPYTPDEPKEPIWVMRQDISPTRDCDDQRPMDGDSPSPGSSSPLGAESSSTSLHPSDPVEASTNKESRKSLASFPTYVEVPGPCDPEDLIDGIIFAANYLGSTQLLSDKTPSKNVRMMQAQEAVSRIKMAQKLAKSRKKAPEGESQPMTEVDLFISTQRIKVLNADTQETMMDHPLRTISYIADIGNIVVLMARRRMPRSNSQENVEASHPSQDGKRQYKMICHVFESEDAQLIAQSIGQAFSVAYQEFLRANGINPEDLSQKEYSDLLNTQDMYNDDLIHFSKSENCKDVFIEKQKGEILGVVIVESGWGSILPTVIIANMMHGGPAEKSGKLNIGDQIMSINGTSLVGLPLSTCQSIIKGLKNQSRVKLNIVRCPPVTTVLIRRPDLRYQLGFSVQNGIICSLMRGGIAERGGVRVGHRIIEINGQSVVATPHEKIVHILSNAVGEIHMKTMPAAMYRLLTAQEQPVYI

IC50 [4]: > 56.8 µM (inactive)
SMILES: CN(C)CCNC(=O)c1cc(-c2ccco2)nc2ccccc12

IC50 [5]: > 40 µM (not active)
SMILES: COc1cccc(C(c2cc3c(cc2O)OCO3)N2CCOCC2)c1O (stereo not drawn)

Second part, the molecule before the results:

SMILES: CC1=NC(=O)C(N=Nc2ccccc2C(=O)O)N1c1ccccc1 (stereo not drawn)
EC50 [1]: > 3.94 µM (active) | EC50 [2]: 16.9 µM (not active) | EC50 [3]: 9.92 µM (active)

SMILES: CCN1CC(=O)Nc2cc(S(=O)(=O)N3CCOCC3)ccc21
EC50 [6]: > 55.7 µM (not active) | EC50 [7]: > 55.7 µM (not active)

SMILES: O=C(O)C1Nc2cc(Cl)cc(Cl)c2C2C=CCC12 (stereo not drawn)
IC50 [8]: 61.6 µM (active) | IC50 [9]: > 100 µM (inactive) | IC50 [10]: 18.1 µM (active) | IC50 [11]: 53 µM (active) | IC50 [12]: 62.7 µM (active) | IC50 [13]: > 100 µM (not active)
